This note sets out measurements from patent US11174245B2, “Benzimidazole compounds and derivatives as EGFR inhibitors” (Boehringer Ingelheim International GmbH, priority 2018, dated 2021).

EGFR wt, sequence (P00533 25-1210): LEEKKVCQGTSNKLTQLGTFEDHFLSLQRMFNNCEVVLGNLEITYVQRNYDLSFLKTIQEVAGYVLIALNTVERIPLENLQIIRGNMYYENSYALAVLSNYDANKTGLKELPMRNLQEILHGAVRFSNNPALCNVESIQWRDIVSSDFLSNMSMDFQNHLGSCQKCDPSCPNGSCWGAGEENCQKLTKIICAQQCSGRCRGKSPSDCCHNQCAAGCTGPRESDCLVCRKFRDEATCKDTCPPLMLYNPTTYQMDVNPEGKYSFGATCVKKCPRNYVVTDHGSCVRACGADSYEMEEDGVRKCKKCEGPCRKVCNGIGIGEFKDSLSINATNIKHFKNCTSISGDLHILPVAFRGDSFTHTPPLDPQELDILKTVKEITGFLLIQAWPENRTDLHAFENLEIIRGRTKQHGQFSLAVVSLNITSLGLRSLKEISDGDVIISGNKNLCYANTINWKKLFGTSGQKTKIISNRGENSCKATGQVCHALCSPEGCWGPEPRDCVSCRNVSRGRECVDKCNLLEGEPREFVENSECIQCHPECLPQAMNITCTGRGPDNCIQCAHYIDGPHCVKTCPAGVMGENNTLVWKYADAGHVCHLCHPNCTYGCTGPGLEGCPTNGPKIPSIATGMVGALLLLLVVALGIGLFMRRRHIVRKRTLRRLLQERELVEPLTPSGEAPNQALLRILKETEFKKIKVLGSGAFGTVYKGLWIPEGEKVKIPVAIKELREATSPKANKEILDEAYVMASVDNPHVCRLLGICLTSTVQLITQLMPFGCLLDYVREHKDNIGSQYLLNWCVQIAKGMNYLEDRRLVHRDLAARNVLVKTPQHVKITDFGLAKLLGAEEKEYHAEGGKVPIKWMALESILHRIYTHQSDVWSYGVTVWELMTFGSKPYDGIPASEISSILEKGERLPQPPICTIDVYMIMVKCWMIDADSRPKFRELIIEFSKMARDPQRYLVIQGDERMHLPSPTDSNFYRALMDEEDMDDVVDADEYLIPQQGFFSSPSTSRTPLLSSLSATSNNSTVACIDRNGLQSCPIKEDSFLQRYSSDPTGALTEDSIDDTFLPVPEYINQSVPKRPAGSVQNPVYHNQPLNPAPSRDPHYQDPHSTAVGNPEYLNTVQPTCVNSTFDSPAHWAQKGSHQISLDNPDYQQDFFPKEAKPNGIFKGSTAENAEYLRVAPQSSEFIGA
EGFR (mutated) 695-1022, T790M, C797S, L858R, sequence (P00533 695-1022 T790M/C797S/L858R): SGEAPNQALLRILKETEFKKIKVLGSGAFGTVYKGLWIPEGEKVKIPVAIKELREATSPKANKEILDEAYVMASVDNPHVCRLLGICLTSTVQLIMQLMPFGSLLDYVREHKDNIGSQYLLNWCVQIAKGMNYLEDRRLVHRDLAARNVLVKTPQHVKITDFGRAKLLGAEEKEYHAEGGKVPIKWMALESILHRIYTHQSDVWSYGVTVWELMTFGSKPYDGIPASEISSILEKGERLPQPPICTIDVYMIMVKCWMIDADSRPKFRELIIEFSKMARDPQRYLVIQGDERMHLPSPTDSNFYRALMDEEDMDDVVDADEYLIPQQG

The first assay deals with EGFR (d746-750 T790M C797S) (Homo sapiens (Human), UniProt P00533, C797S/DEL746-750/T790M). The assay can be described thus: Biochemical EGFR inhibition assay (TR-FRET, poly-GT substrate), EGFR d746-750 T790M C797S. The note with it: 100 μM ATP. As for the experimental part: Biochemical EGFR Inhibition Assays
EGFR (d746-750 T790M C797S), sequence (P00533 other isoform, or with tags, fused parts or gaps T790M/C797S/del 1-694/del 746-750 limits assumed): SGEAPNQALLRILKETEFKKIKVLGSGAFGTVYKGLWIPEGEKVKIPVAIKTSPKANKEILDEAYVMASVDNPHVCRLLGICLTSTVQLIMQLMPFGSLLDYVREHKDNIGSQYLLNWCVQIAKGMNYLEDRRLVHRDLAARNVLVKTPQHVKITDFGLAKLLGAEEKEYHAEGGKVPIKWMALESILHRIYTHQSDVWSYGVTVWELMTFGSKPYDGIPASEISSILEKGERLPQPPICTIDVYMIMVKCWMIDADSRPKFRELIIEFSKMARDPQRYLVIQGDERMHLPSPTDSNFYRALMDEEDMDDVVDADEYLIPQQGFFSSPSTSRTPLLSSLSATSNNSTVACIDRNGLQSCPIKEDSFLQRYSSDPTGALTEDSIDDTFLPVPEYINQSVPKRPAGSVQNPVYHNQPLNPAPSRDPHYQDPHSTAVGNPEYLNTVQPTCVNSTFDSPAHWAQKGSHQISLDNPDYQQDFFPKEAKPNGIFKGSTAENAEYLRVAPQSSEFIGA
Initially, the inhibitory effect of compounds according to the invention is measured in biochemical assays which measure the phosphorylation activity of EGFR enzyme forms on poly-GT substrate in the presence of different concentrations of ATP (5 μM and 100 μM final assay concentration).
The following enzyme forms of EGFR are representative examples that can be used in these assays at the given concentrations:
For the chosen highest assay concentration of 100 μM, 150 nL of compound solution is transferred from a 10 mM DMSO compound stock solution. A series of eleven fivefold dilutions per compound is transferred to the assay plate, compound dilutions are tested in duplicates. DMSO is added as backfill to a total volume of 150 nL. The assay runs on a fully automated robotic system.
These biochemical EGFR enzyme form compound dose-response assays quantify the kinase activity via phosphorylation of a tagged poly-GT substrate. The results of the assay are provided as IC50 values.
In turn, `CN(C)Cc1ccc2c(c1)[nH]/c(=N\C(=O)c1ccnc(-c3cnn(C)c3)c1)n2CC(C)(C)O` [I-029] returned an IC50 of 72.4 nM.

`CN1CCC(c2ccc3c(c2)[nH]/c(=N\C(=O)c2ccnc(-n4cnc5cccc(F)c54)c2)n3CC(C)(C)O)CC1` [I-030]: inhibition was half-maximal at 3.4 nM (IC50).

In turn, `CN1CCC(c2ccc3c(c2)[nH]/c(=N\C(=O)c2ccnc(-c4cnn5cccnc45)c2)n3CC(C)(C)O)CC1` [I-032] registered an IC50 of 0.6 nM.

As to `Cc1ccc2c(c1)[nH]/c(=N\C(=O)c1ccnc(-c3cnn(C)c3)c1)n2CC(C)(C)O` [I-033], the IC50 was 8.6 nM.

As for `Cc1ccc2[nH]/c(=N\C(=O)c3ccnc(-c4cnn(C)c4)c3)n(CC(C)(C)O)c2c1` [I-034], the midpoint of inhibition, the IC50, lay at 22.8 nM.

In turn, `CN1CCC(c2ccc3c(c2)[nH]/c(=N\C(=O)c2ccnc(-c4cnn(C)c4)c2)n3CC(C)(C)O)CC1=O` (stereo not shown) [I-035] gave an IC50 of 5.6 nM.

Take `Cn1cc(-c2cc(C(=O)/N=c3\[nH]c4ccccc4n3[C@H]3CC[C@H](O)CC3)ccn2)cn1` [I-036]: it took 4 nM to reach half-maximal inhibition (IC50).

Regarding `Cn1cc(-c2cc(C(=O)/N=c3\[nH]c4ccccc4n3CCC(C)(C)O)ccn2)cn1` [I-037], the IC50 was determined as 14.2 nM.

For `Cn1cc(-c2cc(C(=O)/N=c3\[nH]c4ccccc4n3CC(C)(C)CO)ccn2)cn1` [I-038], the IC50 amounted to 15.8 nM.

As for `CC(C)(O)Cn1/c(=N/C(=O)c2ccnc(-n3cnc4ccccc43)c2)[nH]c2ccccc21` [I-039], the IC50 stood at 36 nM.

`CC(C)(O)Cn1/c(=N/C(=O)c2ccnc(-c3cccnc3)c2)[nH]c2cc(C3CCCOC3)ccc21` (stereo not shown) [I-052] returned an IC50 of 6.6 nM.

The molecule `Cn1cc(-c2cc(C(=O)/N=c3\[nH]c4cc(C5CCCOC5)ccc4n3CC(C)(C)O)ccn2)cn1` (stereo not shown) [I-053] had an IC50 of 8.7 nM.

The molecule `COC(=O)Cc1ccc2c(c1)[nH]/c(=N\C(=O)c1ccnc(-c3cccnc3)c1)n2CC(C)(C)O` [I-054] returned an IC50 of 4.1 nM.

The molecule `COC(=O)Cc1ccc2c(c1)[nH]/c(=N\C(=O)c1ccnc(-c3cnn(C)c3)c1)n2CC(C)(C)O` [I-055] showed an IC50 of 7.3 nM.

A further assay concerns the target EGFR wt (Homo sapiens (Human), UniProt P00533). The assay can be described thus: Biochemical EGFR inhibition assay (TR-FRET, poly-GT substrate), EGFR wt. Conditions: read-out: wt (5 μM ATP) IC50; 5 μM ATP. In a few lines:
(§1)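 Phosphorylation of tagged poly-GT substrate by EGFR forms measured at 5 μM and 100 μM ATP (final). Top compound concentration 100 μM, eleven fivefold dilutions, in duplicate. Results given as IC50.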
As to `Cn1cc(-c2cc(C(=O)/N=c3\[nH]c4ccccc4n3[C@H]3CC[C@H](O)CC3)ccn2)cn1` [I-036], the IC50 is 407 nM.

The same assay, now with this note: read-out: wt (100 μM ATP) IC50; 100 μM ATP.
On to `CN(C)Cc1ccc2c(c1)[nH]/c(=N\C(=O)c1ccnc(-c3cnn(C)c3)c1)n2CC(C)(C)O` [I-029], for which the IC50 worked out at 14800 nM.

Take `CN1CCC(c2ccc3c(c2)[nH]/c(=N\C(=O)c2ccnc(-n4cnc5cccc(F)c54)c2)n3CC(C)(C)O)CC1` [I-030]: the IC50 was 1960 nM.

In the case of `CN1CCC(c2ccc3c(c2)[nH]/c(=N\C(=O)c2ccnc(-c4cnn5cccnc45)c2)n3CC(C)(C)O)CC1` [I-032], the IC50 is 366 nM.

Consider `Cc1ccc2c(c1)[nH]/c(=N\C(=O)c1ccnc(-c3cnn(C)c3)c1)n2CC(C)(C)O` [I-033], for which the IC50 was found to be 9510 nM.

In the case of `Cc1ccc2[nH]/c(=N\C(=O)c3ccnc(-c4cnn(C)c4)c3)n(CC(C)(C)O)c2c1` [I-034], the IC50 worked out at 3950 nM.

On to `CN1CCC(c2ccc3c(c2)[nH]/c(=N\C(=O)c2ccnc(-c4cnn(C)c4)c2)n3CC(C)(C)O)CC1=O` (stereo not shown) [I-035], for which the half-maximal inhibitory concentration (IC50) stood at 6670 nM.

Take `Cn1cc(-c2cc(C(=O)/N=c3\[nH]c4ccccc4n3[C@H]3CC[C@H](O)CC3)ccn2)cn1` [I-036]: the IC50 was found to be 1250 nM.

For `Cn1cc(-c2cc(C(=O)/N=c3\[nH]c4ccccc4n3CCC(C)(C)O)ccn2)cn1` [I-037], the IC50 is greater than 100000 nM.

With `Cn1cc(-c2cc(C(=O)/N=c3\[nH]c4ccccc4n3CC(C)(C)CO)ccn2)cn1` [I-038], the IC50 worked out at 40800 nM.

As for `CC(C)(O)Cn1/c(=N/C(=O)c2ccnc(-n3cnc4ccccc43)c2)[nH]c2ccccc21` [I-039], the IC50 was greater than 100000 nM.

With `CC(C)(O)Cn1/c(=N/C(=O)c2ccnc(-c3cccnc3)c2)[nH]c2cc(C3CCCOC3)ccc21` (stereo not shown) [I-052], the IC50 was greater than 100000 nM.

`Cn1cc(-c2cc(C(=O)/N=c3\[nH]c4cc(C5CCCOC5)ccc4n3CC(C)(C)O)ccn2)cn1` (stereo not shown) [I-053]: the IC50 worked out at 5740 nM.

For `COC(=O)Cc1ccc2c(c1)[nH]/c(=N\C(=O)c1ccnc(-c3cccnc3)c1)n2CC(C)(C)O` [I-054], the IC50 is 79700 nM.

For the molecule `COC(=O)Cc1ccc2c(c1)[nH]/c(=N\C(=O)c1ccnc(-c3cnn(C)c3)c1)n2CC(C)(C)O` [I-055], the IC50 turned out to be 26300 nM.

For a further assay, the target named is EGFR (mutated) 695-1022, T790M, C797S, L858R (Homo sapiens (Human), UniProt P00533, C797S/L858R/T790M). The assay can be described thus: Biochemical EGFR inhibition assay (TR-FRET, poly-GT substrate), EGFR T790M C797S L858R. Conditions: read-out: LR_TM_CS (5 μM ATP) IC50; 5 μM ATP. In outline:
as §1
Consider `Cn1cc(-c2cc(C(=O)/N=c3\[nH]c4ccccc4n3[C@H]3CC[C@H](O)CC3)ccn2)cn1` [I-036], for which the IC50 was 1.6 nM.

The assay is the same for the next values; noted with them: read-out: LR_TM_CS (100 μM ATP) IC50; 100 μM ATP.
As for `CN(C)Cc1ccc2c(c1)[nH]/c(=N\C(=O)c1ccnc(-c3cnn(C)c3)c1)n2CC(C)(C)O` [I-029], the IC50 came to 190 nM.

`CN1CCC(c2ccc3c(c2)[nH]/c(=N\C(=O)c2ccnc(-n4cnc5cccc(F)c54)c2)n3CC(C)(C)O)CC1` [I-030]: the IC50 is 25.5 nM.

On to `CN1CCC(c2ccc3c(c2)[nH]/c(=N\C(=O)c2ccnc(-c4cnn5cccnc45)c2)n3CC(C)(C)O)CC1` [I-032], for which the 50% inhibitory concentration (IC50) amounted to 3 nM.

On to `Cc1ccc2c(c1)[nH]/c(=N\C(=O)c1ccnc(-c3cnn(C)c3)c1)n2CC(C)(C)O` [I-033], for which the IC50 turned out to be 91.6 nM.

In the case of `Cc1ccc2[nH]/c(=N\C(=O)c3ccnc(-c4cnn(C)c4)c3)n(CC(C)(C)O)c2c1` [I-034], the IC50 is 196 nM.

As to `CN1CCC(c2ccc3c(c2)[nH]/c(=N\C(=O)c2ccnc(-c4cnn(C)c4)c2)n3CC(C)(C)O)CC1=O` (stereo not shown) [I-035], the IC50 came out at 79.3 nM.

Regarding `Cn1cc(-c2cc(C(=O)/N=c3\[nH]c4ccccc4n3[C@H]3CC[C@H](O)CC3)ccn2)cn1` [I-036], the IC50 came out at 40.1 nM.

Turning to `Cn1cc(-c2cc(C(=O)/N=c3\[nH]c4ccccc4n3CCC(C)(C)O)ccn2)cn1` [I-037], the IC50 was found to be 171 nM.

Take `Cn1cc(-c2cc(C(=O)/N=c3\[nH]c4ccccc4n3CC(C)(C)CO)ccn2)cn1` [I-038]: the IC50 was determined as 234 nM.

Regarding `CC(C)(O)Cn1/c(=N/C(=O)c2ccnc(-n3cnc4ccccc43)c2)[nH]c2ccccc21` [I-039], the concentration for half-maximal inhibition (IC50) amounted to 508 nM.

For the molecule `CC(C)(O)Cn1/c(=N/C(=O)c2ccnc(-c3cccnc3)c2)[nH]c2cc(C3CCCOC3)ccc21` (stereo not shown) [I-052], the IC50 came out at 189 nM.

`Cn1cc(-c2cc(C(=O)/N=c3\[nH]c4cc(C5CCCOC5)ccc4n3CC(C)(C)O)ccn2)cn1` (stereo not shown) [I-053]: the IC50 came to 94.1 nM.

On to `COC(=O)Cc1ccc2c(c1)[nH]/c(=N\C(=O)c1ccnc(-c3cccnc3)c1)n2CC(C)(C)O` [I-054], for which the IC50 was 104 nM.

For the molecule `COC(=O)Cc1ccc2c(c1)[nH]/c(=N\C(=O)c1ccnc(-c3cnn(C)c3)c1)n2CC(C)(C)O` [I-055], the IC50 amounted to 86.9 nM.

The target of the next assay is EGFR del19 T790M C797S protein in Ba/F3 cells (Homo sapiens, UniProt P00533, C797S/DEL746-750/T790M). Description: pEGFR assay (AlphaScreen Surefire, EGFR Tyr1068 phosphorylation). Type of assay: cell-based.
EGFR del19 T790M C797S protein in Ba/F3 cells, sequence (P00533 with tags, fused parts or gaps C797S/DEL746-750/T790M limits assumed): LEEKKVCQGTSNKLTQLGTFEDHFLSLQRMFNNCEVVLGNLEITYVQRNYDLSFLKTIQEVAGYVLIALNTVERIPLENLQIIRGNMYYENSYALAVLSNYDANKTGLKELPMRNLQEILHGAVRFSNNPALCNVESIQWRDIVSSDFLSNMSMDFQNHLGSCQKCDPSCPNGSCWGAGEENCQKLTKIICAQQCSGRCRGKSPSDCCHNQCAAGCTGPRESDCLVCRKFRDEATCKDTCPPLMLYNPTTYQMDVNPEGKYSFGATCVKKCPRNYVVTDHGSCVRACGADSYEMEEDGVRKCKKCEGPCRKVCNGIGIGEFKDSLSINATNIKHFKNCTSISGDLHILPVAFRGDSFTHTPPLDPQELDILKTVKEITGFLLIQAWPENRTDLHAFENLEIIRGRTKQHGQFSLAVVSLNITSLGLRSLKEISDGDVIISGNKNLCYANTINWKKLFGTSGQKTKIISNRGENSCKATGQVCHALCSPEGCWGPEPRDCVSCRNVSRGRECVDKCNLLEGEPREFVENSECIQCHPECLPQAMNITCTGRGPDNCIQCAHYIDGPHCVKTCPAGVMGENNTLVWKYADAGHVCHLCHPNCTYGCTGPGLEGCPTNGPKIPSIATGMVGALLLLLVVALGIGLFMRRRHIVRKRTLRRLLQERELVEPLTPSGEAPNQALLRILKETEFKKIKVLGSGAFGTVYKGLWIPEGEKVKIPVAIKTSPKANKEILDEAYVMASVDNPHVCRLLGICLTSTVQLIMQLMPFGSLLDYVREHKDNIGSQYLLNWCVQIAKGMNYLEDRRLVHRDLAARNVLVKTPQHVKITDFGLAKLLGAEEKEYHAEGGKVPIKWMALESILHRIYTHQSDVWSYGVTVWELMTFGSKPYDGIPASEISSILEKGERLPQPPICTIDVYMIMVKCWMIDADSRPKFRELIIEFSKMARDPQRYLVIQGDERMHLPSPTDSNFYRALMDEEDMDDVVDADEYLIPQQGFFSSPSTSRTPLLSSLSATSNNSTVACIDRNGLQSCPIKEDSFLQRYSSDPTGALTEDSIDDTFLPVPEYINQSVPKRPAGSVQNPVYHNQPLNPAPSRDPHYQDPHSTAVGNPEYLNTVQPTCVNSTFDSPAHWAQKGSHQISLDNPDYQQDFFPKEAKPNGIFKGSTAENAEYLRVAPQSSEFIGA
Conditions: not given
In a few lines: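 Transduced Ba/F3 cells, puromycin-selected and grown IL-3 independent, were treated with compound at 60.000 cells/well for 4 h at 37° C. Lysis followed for 20 min at room temperature, and Tyr1068 phospho-EGFR in lysate was detected after 2 h dark incubation. Results are IC50 values.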
In the case of `CN(C)Cc1ccc2c(c1)[nH]/c(=N\C(=O)c1ccnc(-c3cnn(C)c3)c1)n2CC(C)(C)O` [I-029], the IC50 came to 58 nM.

In turn, `CN1CCC(c2ccc3c(c2)[nH]/c(=N\C(=O)c2ccnc(-n4cnc5cccc(F)c54)c2)n3CC(C)(C)O)CC1` [I-030] returned an IC50 of 6 nM.

`CN1CCC(c2ccc3c(c2)[nH]/c(=N\C(=O)c2ccnc(-c4cnn5cccnc45)c2)n3CC(C)(C)O)CC1` [I-032] showed an IC50 of 1 nM.

On to `Cc1ccc2c(c1)[nH]/c(=N\C(=O)c1ccnc(-c3cnn(C)c3)c1)n2CC(C)(C)O` [I-033], for which the IC50 came out at 9 nM.

`Cc1ccc2[nH]/c(=N\C(=O)c3ccnc(-c4cnn(C)c4)c3)n(CC(C)(C)O)c2c1` [I-034] came in with an IC50 of 21 nM.

Regarding `CN1CCC(c2ccc3c(c2)[nH]/c(=N\C(=O)c2ccnc(-c4cnn(C)c4)c2)n3CC(C)(C)O)CC1=O` (stereo not shown) [I-035], the midpoint of inhibition, the IC50, lay at 79 nM.

The molecule `Cn1cc(-c2cc(C(=O)/N=c3\[nH]c4ccccc4n3[C@H]3CC[C@H](O)CC3)ccn2)cn1` [I-036] yielded an IC50 of 3 nM.

In the case of `Cn1cc(-c2cc(C(=O)/N=c3\[nH]c4ccccc4n3CCC(C)(C)O)ccn2)cn1` [I-037], the IC50 worked out at 15 nM.

Take `Cn1cc(-c2cc(C(=O)/N=c3\[nH]c4ccccc4n3CC(C)(C)CO)ccn2)cn1` [I-038]: 27 nM corresponded to half-maximal inhibition (IC50).

As to `CC(C)(O)Cn1/c(=N/C(=O)c2ccnc(-n3cnc4ccccc43)c2)[nH]c2ccccc21` [I-039], the IC50 stood at 9 nM.

Consider `CC(C)(O)Cn1/c(=N/C(=O)c2ccnc(-c3cccnc3)c2)[nH]c2cc(C3CCCOC3)ccc21` (stereo not shown) [I-052], for which the IC50 is 6 nM.

Turning to `Cn1cc(-c2cc(C(=O)/N=c3\[nH]c4cc(C5CCCOC5)ccc4n3CC(C)(C)O)ccn2)cn1` (stereo not shown) [I-053], the IC50 worked out at 2 nM.

Turning to `COC(=O)Cc1ccc2c(c1)[nH]/c(=N\C(=O)c1ccnc(-c3cccnc3)c1)n2CC(C)(C)O` [I-054], the midpoint of inhibition, the IC50, lay at 7 nM.

`COC(=O)Cc1ccc2c(c1)[nH]/c(=N\C(=O)c1ccnc(-c3cnn(C)c3)c1)n2CC(C)(C)O` [I-055] returned an IC50 of 10 nM.
